Results: paper PMC7044277 (Nature Communications, 2020)
“And” between values parts separate entries of the source, which are not always exact repeats. Equal entries are not always repeated. One block for each molecule: values may come before it.

What was measured:
Assay type in all cases: cell-based
320 non-olfactory GPCRs [1] = molecular target: T1, 320 non-olfactory GPCRs (Homo sapiens, UniProt Q96RI9); parameters: GPCRome screening signal at PTGIR / GPCRome screening signal at PTH1R / GPCRome screening signal at PTH2R / GPCRome screening signal at QRFP / GPCRome screening signal at RXFP2 / GPCRome screening signal at RXFP3 / GPCRome screening signal at RXFP4 / GPCRome screening signal at S1PR2 / GPCRome screening signal at S1PR3 / GPCRome screening signal at S1PR4 / GPCRome screening signal at S1PR5 / GPCRome screening signal at SCTR / GPCRome screening signal at SSTR2 / GPCRome screening signal at SSSTR / GPCRome screening signal at SSTR4 / GPCRome screening signal at SSTR5 / GPCRome screening signal at SUCNR1 / GPCRome screening signal at TA1 / GPCRome screening signal at TAAR2 / GPCRome screening signal at TAAR5 / GPCRome screening signal at TAAR6 / GPCRome screening signal at TAAR8 / GPCRome screening signal at TACR1 / GPCRome screening signal at TACR2 / GPCRome screening signal at TACR3 / GPCRome screening signal at TBXA2R / GPCRome screening signal at TSHR / GPCRome screening signal at UTS2R / GPCRome screening signal at VIPR2 / GPCRome screening signal at GPR68 no V2 Tail / GPCRome screening signal at GRM2 / GPCRome screening signal at GRM3: reference not given here; details: receptor TAAR9
T1 construct: expressed in transfected cells; host or cells: HTLA cells
T1 sequence (Q96RI9 whole entry): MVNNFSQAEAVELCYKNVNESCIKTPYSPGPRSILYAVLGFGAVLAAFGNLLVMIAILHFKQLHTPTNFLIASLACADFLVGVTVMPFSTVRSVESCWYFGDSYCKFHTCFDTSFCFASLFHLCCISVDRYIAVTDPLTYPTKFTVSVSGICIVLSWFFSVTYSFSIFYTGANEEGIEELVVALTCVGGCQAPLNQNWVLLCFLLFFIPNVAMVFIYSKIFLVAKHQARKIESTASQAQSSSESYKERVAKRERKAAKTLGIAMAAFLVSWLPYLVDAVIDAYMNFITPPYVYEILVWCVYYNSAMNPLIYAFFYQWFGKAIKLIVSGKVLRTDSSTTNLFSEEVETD

320 non-olfactory GPCRs [2] = molecular target: T2, 320 non-olfactory GPCRs (Homo sapiens, UniProt P21452); parameters: GPCRome screening signal at PTGIR / GPCRome screening signal at PTH1R / GPCRome screening signal at PTH2R / GPCRome screening signal at QRFP / GPCRome screening signal at RXFP2 / GPCRome screening signal at RXFP3 / GPCRome screening signal at RXFP4 / GPCRome screening signal at S1PR2 / GPCRome screening signal at S1PR3 / GPCRome screening signal at S1PR4 / GPCRome screening signal at S1PR5 / GPCRome screening signal at SCTR / GPCRome screening signal at SSTR2 / GPCRome screening signal at SSSTR / GPCRome screening signal at SSTR4 / GPCRome screening signal at SSTR5 / GPCRome screening signal at SUCNR1 / GPCRome screening signal at TA1 / GPCRome screening signal at TAAR2 / GPCRome screening signal at TAAR5 / GPCRome screening signal at TAAR6 / GPCRome screening signal at TAAR8 / GPCRome screening signal at TACR1 / GPCRome screening signal at TACR2 / GPCRome screening signal at TACR3 / GPCRome screening signal at TBXA2R / GPCRome screening signal at TSHR / GPCRome screening signal at UTS2R / GPCRome screening signal at VIPR2 / GPCRome screening signal at GPR68 no V2 Tail / GPCRome screening signal at GRM2 / GPCRome screening signal at GRM3: reference not given here; details: receptor TACR2
T2 construct: expressed in transfected cells; host or cells: HTLA cells
T2 sequence (P21452 whole entry): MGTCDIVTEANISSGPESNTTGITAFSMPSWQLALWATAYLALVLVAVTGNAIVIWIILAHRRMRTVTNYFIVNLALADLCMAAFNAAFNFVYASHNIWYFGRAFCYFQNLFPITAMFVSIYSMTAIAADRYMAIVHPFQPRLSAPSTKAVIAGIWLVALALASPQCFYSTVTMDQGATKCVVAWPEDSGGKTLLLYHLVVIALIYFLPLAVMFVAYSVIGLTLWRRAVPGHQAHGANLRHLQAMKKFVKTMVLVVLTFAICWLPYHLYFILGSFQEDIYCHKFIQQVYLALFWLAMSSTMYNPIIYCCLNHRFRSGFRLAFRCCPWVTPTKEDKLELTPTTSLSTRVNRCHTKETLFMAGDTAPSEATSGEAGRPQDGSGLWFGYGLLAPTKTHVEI

5HT7A = molecular target: T3, 5HT7A (Homo sapiens, UniProt P34969); assay: β-arrestin2 recruitment (Tango); details: for β-arrestin2 recruitment response, replicate points of concentration-response curve: Fig_S10q, agonist mode
T3 construct: expressed in transfected cells; host or cells: HTLA cells expressing TEV-fused β-arrestin2
T3 sequence (P34969 1-445 isoform P34969-2): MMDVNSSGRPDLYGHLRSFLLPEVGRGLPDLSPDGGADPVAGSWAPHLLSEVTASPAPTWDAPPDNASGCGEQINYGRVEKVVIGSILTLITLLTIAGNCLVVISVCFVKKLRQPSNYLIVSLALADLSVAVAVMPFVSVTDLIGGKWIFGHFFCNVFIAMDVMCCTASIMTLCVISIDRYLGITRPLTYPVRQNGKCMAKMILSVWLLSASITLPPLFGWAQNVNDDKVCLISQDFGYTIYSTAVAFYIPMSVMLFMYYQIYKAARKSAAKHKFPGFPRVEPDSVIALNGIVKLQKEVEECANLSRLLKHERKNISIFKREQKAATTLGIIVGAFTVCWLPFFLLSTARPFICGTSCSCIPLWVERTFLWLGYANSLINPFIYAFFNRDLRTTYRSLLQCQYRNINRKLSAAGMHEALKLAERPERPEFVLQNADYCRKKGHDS

DRD2 S1945.43G = molecular target: T4, DRD2 S1945.43G (Homo sapiens, UniProt P14416, S194G); assay: Gαi/o-mediated cAMP inhibition (GloSensor), mutant; details: DRD2 Ser5.43Gly; G-protein assay
T4 construct: expressed in transfected cells; host or cells: HEK293T (ATCC CRL-11268)
T4 sequence (P14416 whole entry S194G): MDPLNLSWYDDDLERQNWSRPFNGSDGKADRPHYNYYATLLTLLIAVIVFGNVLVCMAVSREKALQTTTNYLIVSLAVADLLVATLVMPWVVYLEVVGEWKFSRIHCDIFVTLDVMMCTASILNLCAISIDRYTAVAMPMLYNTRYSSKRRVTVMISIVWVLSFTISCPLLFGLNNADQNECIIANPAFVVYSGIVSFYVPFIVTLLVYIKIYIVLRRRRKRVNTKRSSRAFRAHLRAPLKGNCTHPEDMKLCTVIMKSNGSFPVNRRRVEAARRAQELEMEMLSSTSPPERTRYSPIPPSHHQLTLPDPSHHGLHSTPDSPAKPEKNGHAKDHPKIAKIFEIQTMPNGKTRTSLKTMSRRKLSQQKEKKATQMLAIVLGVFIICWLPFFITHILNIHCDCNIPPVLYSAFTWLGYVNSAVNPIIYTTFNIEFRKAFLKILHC

DRD1 = DRD1 (Homo sapiens, UniProt P21728); assay: β-arrestin2 recruitment (Tango); details: agonist mode
DRD1, sequence (P21728 whole entry): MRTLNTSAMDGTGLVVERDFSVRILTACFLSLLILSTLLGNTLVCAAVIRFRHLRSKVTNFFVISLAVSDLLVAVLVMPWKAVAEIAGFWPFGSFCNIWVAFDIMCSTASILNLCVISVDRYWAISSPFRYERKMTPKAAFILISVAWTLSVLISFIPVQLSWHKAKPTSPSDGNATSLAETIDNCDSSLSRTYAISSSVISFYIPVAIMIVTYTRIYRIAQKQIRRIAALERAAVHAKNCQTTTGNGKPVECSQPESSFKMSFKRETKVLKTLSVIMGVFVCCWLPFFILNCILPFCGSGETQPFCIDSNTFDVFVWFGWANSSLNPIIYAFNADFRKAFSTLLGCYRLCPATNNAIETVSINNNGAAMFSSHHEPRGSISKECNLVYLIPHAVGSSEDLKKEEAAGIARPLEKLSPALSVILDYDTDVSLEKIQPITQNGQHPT

5HT6 = molecular target: T5, 5HT6 (Homo sapiens, UniProt P50406); assay: β-arrestin2 recruitment (Tango); details: Fig_S10p, agonist mode
T5 construct: expressed in transfected cells; host or cells: HTLA cells expressing TEV-fused β-arrestin2
T5 sequence (P50406 whole entry, the tested form may be a part): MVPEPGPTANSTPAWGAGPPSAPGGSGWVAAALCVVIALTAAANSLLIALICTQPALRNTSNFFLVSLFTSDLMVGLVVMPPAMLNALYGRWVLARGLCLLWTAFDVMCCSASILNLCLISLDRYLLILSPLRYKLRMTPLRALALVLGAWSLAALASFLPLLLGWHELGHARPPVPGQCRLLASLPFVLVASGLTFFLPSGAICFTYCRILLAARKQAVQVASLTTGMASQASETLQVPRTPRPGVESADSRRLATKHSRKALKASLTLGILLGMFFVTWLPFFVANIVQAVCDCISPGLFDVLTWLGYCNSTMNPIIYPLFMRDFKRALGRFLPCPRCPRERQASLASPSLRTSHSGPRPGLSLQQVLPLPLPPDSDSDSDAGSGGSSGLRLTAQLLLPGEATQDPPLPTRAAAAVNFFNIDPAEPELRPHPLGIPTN

[3] = Fig_5f, single replicate values
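For GPCRome agonism screen response in this document: fold over basal response of each receptor without drug.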

GPCRome screening signal at TAAR9 (320 non-olfactory GPCRs [1]; [3]): 1.0253 and 1.396 and 1.2735 and 0.8423
GPCRome screening signal at TACR2 (320 non-olfactory GPCRs [2]; [3]): 1.32 and 1.667 and 1.261 and 1.267
SMILES: CCOc1ccccc1CCC(C)NCC1(O)CCCCC1.Cl (racemic) [Fig_5f]

SMILES: CCOc1cccc2cc(C(C)NCC3(O)CCCCC3)oc12 (centres unmarked) [O4LE6]
GPCRome agonism screen response (320 non-olfactory GPCRs [1]; replicate values, Fig_4g): 0.8369 and 1.036 and 0.7156 and 1.104
GPCRome agonism screen response (320 non-olfactory GPCRs [2]; replicate values, Fig_4g): 0.5287 and 0.4964 and 0.9933 and 0.8884

SMILES: CCOc1cccc2cc([C@H](C)NCC3(O)CCCCC3)oc12 [O4SE6]
concentration at which the receptor is activated (5HT7A; 5HT7A, agonist activity only at high concentrations): over 1 μM
β-arrestin2 recruitment response, replicate points of concentration-response curve (5HT7A; Log[Drug] -8.52): -17.0653 and -8.2658 and 45.2148 and -20.2418 and -21.803 and -0.7194 and -2.896 and -5.6 and 11.1273 and 4.271 and -5.097 and 41.8171
β-arrestin2 recruitment response, replicate points of concentration-response curve (5HT7A; Log[Drug] -9): -5.443 and 2.933 and -8.226 and -2.556 and -7.477 and 46.4452 and 15.6099 and 24.9983 and 34.962 and -18.0177 and 28.5192 and 18.5487
β-arrestin2 recruitment response, replicate points of concentration-response curve (5HT7A; Log[Drug] -9.52): -12.1477 and -17.9982 and -14.9702 and 11.6094 and 28.1779 and -35.8001 and 6.565 and -15.7686 and -5.626 and -8.555 and 44.6962 and -16.9086
β-arrestin2 recruitment response, replicate points of concentration-response curve (5HT7A; Log[Drug] -10): 8.096 and 0.4862 and 3.854 and 5.12 and -39.6418 and 11.9538 and 0.1785 and 14.2612 and 32.5752 and 35.9646 and 2.796 and -2.0885
β-arrestin2 recruitment response, replicate points of concentration-response curve (5HT7A; Log[Drug] -10.52): -7.874 and -13.6459 and -8.622 and -2.931 and 11.0507 and -27.4126 and -0.1587 and -15.0413 and -19.8744 and -43.7994 and 23.1032 and 11.941
β-arrestin2 recruitment response, replicate points of concentration-response curve (5HT7A; Log[Drug] -11): -18.3698 and 12.5825 and -5.609 and -19.6985 and -4.821 and 50.3406 and -7.299 and -5.302 and 7.068 and 22.7847 and 5.345 and 29.9587
β-arrestin2 recruitment response, replicate points of concentration-response curve (5HT7A; Log[Drug] -11.52): -11.7405 and -3.06 and 5.3959 and -7.492 and 32.3027 and 44.3713 and -10.4331 and 15.1471 and 38.5521 and -11.882 and -21.4277 and -18.6431
β-arrestin2 recruitment response, replicate points of concentration-response curve (5HT7A; Log[Drug] -12): -10.8669 and -8.214 and -4.091 and -12.7879 and 18.5659 and 87.5029 and 6.479 and 24.6612 and 1.765 and 32.6018 and 45.9115 and -9.546
agonism after serine to glycine substitution (DRD2 S1945.43G): impaired
Fig_S10d concentration-response source data, compound alone (replicates) (DRD1; Log[Drug] -6.52): 1.081
Fig_S10d concentration-response source data, compound alone (replicates) (DRD1; Log[Drug] -7): 1.077 and 2.449 and 0.7206 and 0.01093 and 0.2616 and 0.5709 and 0.4663 and -0.4785 and 0.5459
Fig_S10d concentration-response source data, compound alone (replicates) (DRD1; Log[Drug] -7.52): 0.3818 and 0.7249 and 2.612 and 1.107 and 0.1296 and 1.638 and 0.2406 and 0.3904 and 0.4963
Fig_S10d concentration-response source data, compound alone (replicates) (DRD1; Log[Drug] -8): 4.337 and 0.3775 and 1.059 and 0.9723 and 0.606 and 0.3811 and 0.01404 and 0.5796 and 0.0103
Fig_S10d concentration-response source data, compound alone (replicates) (DRD1; Log[Drug] -8.52): 1.411 and 0.7206 and 3.809 and 2.0766 and 0.164 and 0.2319 and -0.01873 and 0.09082 and 0.3165
Fig_S10d concentration-response source data, compound alone (replicates) (DRD1; Log[Drug] -9): -0.3131 and 1.5871 and 3.29 and -0.05311 and -0.07654 and 0.3577 and 0.09363 and 0.0515 and 0.4204
Fig_S10d concentration-response source data, compound alone (replicates) (DRD1; Log[Drug] -9.52): 3.9849 and 1.227 and 1.561 and 0.082 and -0.1093 and 0.5131 and -0.06273 and 0.7238 and 1.497
Fig_S10d concentration-response source data, compound alone (replicates) (DRD1; Log[Drug] -10): 3.981 and 1.729 and 5.684 and -0.04842 and 0.2671 and 0.3249 and 0.426 and 0.4251 and 0.5346
Fig_S10d concentration-response source data, compound alone (replicates) (DRD1; Log[Drug] -10.52): 0.712 and 1.746 and 4.122 and 0.3608 and 0.264 and 0.2335 and 1.101 and -0.02996 and 0.2809
Fig_S10d concentration-response source data, compound alone (replicates) (DRD1; Log[Drug] -11): 2.269 and 1.742 and 3.972 and 0.1742 and 0.3296 and 0.01406 and 0.6835 and 1.257 and -0.2856
Fig_S10d concentration-response source data, compound alone (replicates) (DRD1; Log[Drug] -11.52): 0.3861 and 1.068 and 2.775 and -0.2327 and -0.01484 and 0.1414 and 0.7734 and -0.7734 and -0.2032
Fig_S10d concentration-response source data, compound alone (replicates) (DRD1; Log[Drug] -12): 1.754 and 0.5705 and -0.2917 and 0.1156 and 0.2702 and 0.1429 and -0.6489 and -0.1919 and -0.08146
β-arrestin2 recruitment response, replicate points of concentration-response curve (5HT6; Log[Drug] -6): -0.3035
β-arrestin2 recruitment response, replicate points of concentration-response curve (5HT6; Log[Drug] -6.52): 1.0135 and 1.198 and 5.246 and -9.543 and -10.288 and -8.77 and 1.1615 and -3.588 and -1.1467
β-arrestin2 recruitment response, replicate points of concentration-response curve (5HT6; Log[Drug] -7): 1.87 and 1.848 and 8.574 and -11.7696 and -2.512 and -8.797 and 0.1776 and -4.113 and -5.009
β-arrestin2 recruitment response, replicate points of concentration-response curve (5HT6; Log[Drug] -7.52): 1.593 and -0.504 and 0.09756 and -12.1009 (2×) and -11.7328 and 60.6717 and -4.6608 and -1.753
β-arrestin2 recruitment response, replicate points of concentration-response curve (5HT6; Log[Drug] -8): 1.669 and -1.382 and -0.2872 and -13.1683 and -12.0825 and -9.524 and -3.196 and -2.353 and 1.768
β-arrestin2 recruitment response, replicate points of concentration-response curve (5HT6; Log[Drug] -8.52): 0.775 and 4.666 and 0.9864 and -12.4781 and -7.656 and -12.1009 and 0.3255 and -3.854 and 3.566
β-arrestin2 recruitment response, replicate points of concentration-response curve (5HT6; Log[Drug] -9): 2.499 and 9.663 and 0.775 and -0.2945 and -9.561 and -9.543 and -2.049 and -4.424 and -4.173
β-arrestin2 recruitment response, replicate points of concentration-response curve (5HT6; Log[Drug] -9.52): -0.09214 and 0.5474 and -0.9647 and -12.1929 and -11.3831 and -2.5214 and -5.0455 and -0.3107 and 5.623
β-arrestin2 recruitment response, replicate points of concentration-response curve (5HT6; Log[Drug] -10): 3.149 and 2.721 and -0.1138 and 8.135 and -9.598 and -12.4689 and 1.768 and 2.893 and -2.7151
β-arrestin2 recruitment response, replicate points of concentration-response curve (5HT6; Log[Drug] -10.52): 2.504 and 5.311 and 0.7425 and -10.7297 and -3.616 and -12.1193 and -4.52 and 13.3166 and 0.2515
β-arrestin2 recruitment response, replicate points of concentration-response curve (5HT6; Log[Drug] -11): 0.5474 and 6.401 and -0.2981 and -6.662 and -9.929 and -5.0796 and -2.915 and -3.588 and -2.353
β-arrestin2 recruitment response, replicate points of concentration-response curve (5HT6; Log[Drug] -11.52): 1.409 and 4.46 and -0.7262 and -4.371 and -12.837 and -12.1009 and -3.803 and -3.24 and -3.847
